What was measured:
[1] = test system: HCT116 cells; experiment: Antiproliferative activity, Alamar Blue assay, HCT116 cells; assay type: cell-based, human; design: key to HCT116 antiproliferative activity pIC50: pIC50 = -log IC50 (IC50: conc. reducing growth to 50% of control); conditions: for IC50: Homo sapiens, HCT-116, HCT116 cells, read-out: HCT116 antiproliferative activity pIC50 (converted); for HCT116 antiproliferative activity pIC50: HCT116 cells
Summary of the method: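 Readout is resazurin fluorescence (ex 540, em 590 nm) after a 4 h dye incubation at 37 °C, following 4-day compound treatment of HCT116 cells plated 24 h earlier. Results expressed as % viable cells versus untreated; pIC50 derived from probit-fitted IC50.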

[2] = molecular target: T1, Human PARP-1 enzyme (Homo sapiens, UniProt P09874); experiment: In vitro Scintillation Proximity Assay (SPA) for PARP-1 inhibitory activity; assay type: biochemical; conditions: read-out: in vitro SPA assay PARP-1 pIC50 (converted)
T1 construct: purchased Trevigen
T1 sequence (P09874 whole entry): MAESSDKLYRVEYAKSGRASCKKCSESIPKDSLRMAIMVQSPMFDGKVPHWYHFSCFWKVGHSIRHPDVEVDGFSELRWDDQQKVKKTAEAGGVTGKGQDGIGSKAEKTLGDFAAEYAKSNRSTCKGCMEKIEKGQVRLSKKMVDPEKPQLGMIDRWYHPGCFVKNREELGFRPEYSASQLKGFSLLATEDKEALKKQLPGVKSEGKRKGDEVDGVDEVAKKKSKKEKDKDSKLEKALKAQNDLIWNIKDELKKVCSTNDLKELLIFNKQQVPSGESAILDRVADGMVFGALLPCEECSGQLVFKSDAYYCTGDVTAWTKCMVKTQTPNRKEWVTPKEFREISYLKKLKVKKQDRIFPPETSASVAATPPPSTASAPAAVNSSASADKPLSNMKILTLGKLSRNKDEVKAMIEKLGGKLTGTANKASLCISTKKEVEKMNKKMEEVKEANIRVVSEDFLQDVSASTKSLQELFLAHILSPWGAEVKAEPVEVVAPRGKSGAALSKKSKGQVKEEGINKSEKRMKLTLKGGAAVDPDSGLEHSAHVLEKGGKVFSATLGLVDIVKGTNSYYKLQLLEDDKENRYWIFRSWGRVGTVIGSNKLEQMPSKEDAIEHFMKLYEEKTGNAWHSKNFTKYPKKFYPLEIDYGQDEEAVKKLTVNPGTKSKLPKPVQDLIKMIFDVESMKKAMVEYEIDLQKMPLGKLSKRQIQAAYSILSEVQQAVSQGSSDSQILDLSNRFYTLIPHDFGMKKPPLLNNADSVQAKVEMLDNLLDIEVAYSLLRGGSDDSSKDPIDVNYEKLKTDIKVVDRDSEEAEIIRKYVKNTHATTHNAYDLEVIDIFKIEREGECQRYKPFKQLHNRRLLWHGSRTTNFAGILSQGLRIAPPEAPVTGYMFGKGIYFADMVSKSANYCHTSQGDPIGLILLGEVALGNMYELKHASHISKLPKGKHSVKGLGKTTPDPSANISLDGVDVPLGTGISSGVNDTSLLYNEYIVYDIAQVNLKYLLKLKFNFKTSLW
Summary of the method: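 SPA assay: nicked-DNA-activated PARP-1 (0.1–0.2 μg/ml) ADP-ribosylates biotinylated histones (2 μg/ml) using [3H]-NAD+, 20 min at RT in Tris pH 8/DTT/MgCl2, stopped with 2 mM NAD+. Blank-subtracted cpm expressed as % control; IC50 by linear interpolation, reported as pIC50 (10−5 to 3×10−9 M tested).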

Row | SMILES | IC50 [1] | IC50 [2] | HCT116 antiproliferative activity pIC50 [1]
1 | Cc1cc2ccc(C(C)(C#N)C3CCc4c(C#N)cccc43)cc2[nH]c1=O (racemic) [Compound 393] | 6310 nM | 100 nM | 
2 | CCc1cc2ccc([C@@](C)(C#N)CN(C)Cc3ccc(C#N)cc3)cc2[nH]c1=O (single isomer, unassigned) [Compound 253] | 63.1 nM | 100 nM | 
3 | CCc1cc2ccc(C(C)(C#N)C3CCc4ccc(Br)cc43)cc2[nH]c1=O (single isomer, unassigned) [Compound 380] |  | 126 nM | 5.7
4 | CCc1cc2ccc(C(C)(C#N)C3CCc4ccc(Br)cc43)cc2[nH]c1=O (single isomer, unassigned) [Compound 381] |  | 79.4 nM | 7.3
5 | Cc1cc2ccc([C@](C)(C#N)C3CCc4cccnc43)cc2[nH]c1=O (single isomer, unassigned) [Compound 388] | 6310 nM | 200 nM | 
6 | CCc1cc2ccc([C@](C)(C#N)[C@H]3CCOc4ccccc43)cc2[nH]c1=O (single isomer, unassigned) [Compound 394] | 7940 nM | 200 nM | 
7 | CCc1cc2ccc([C@@](C)(C#N)[C@H]3CCOc4ccccc43)cc2[nH]c1=O (single isomer, unassigned) [Compound 395] | 631 nM | 63.1 nM | 
8 | CCc1cc2ccc([C@](C)(C#N)C[C@H]3CCc4ccccc4O3)cc2[nH]c1=O (single isomer, unassigned) [Compound 396] |  | 100 nM | 
9 | CCc1cc2ccc(C(C)(C#N)Cc3cccc(-c4cnn(C)c4)c3)cc2[nH]c1=O (stereo not shown) [Compound 17] | 2510 nM | 251 nM | 
10 | CCc1cc2ccc(C(C)(C#N)Cc3cccc(-c4ccccc4)c3)cc2[nH]c1=O (stereo not shown) [Compound 18] | 5010 nM | 2000 nM | 
11 | CCc1cc2ccc(C(C)(C#N)Cc3cccc(I)c3)cc2[nH]c1=O (stereo not shown) [Compound 19] | 50.1 nM | 1000 nM | 
12 | CCc1cc2ccc(C(C)(C#N)Cc3cccc(N(C)C)c3)cc2[nH]c1=O (stereo not shown) [Compound 20] | 200 nM | 398 nM | 
13 | CCc1cc2ccc(C(C)(C#N)Cc3cccc(N4CCOCC4)c3)cc2[nH]c1=O (stereo not shown) [Compound 21] | 1260 nM | 398 nM | 
14 | CCc1cc2ccc(C(C)(C#N)Cc3cccc(O)c3)cc2[nH]c1=O (stereo not shown) [Compound 22] | > 10000 nM | 126 nM | 
15 | CCc1cc2ccc(C(C)(C#N)Cc3cccc(OCc4ccccc4)c3)cc2[nH]c1=O (stereo not shown) [Compound 23] | 3160 nM | 1260 nM | 
16 | CCc1cc2ccc(C(C)(C#N)Cc3cccc(OCCOC)c3)cc2[nH]c1=O (stereo not shown) [Compound 24] | 1000 nM | 631 nM | 

Row | SMILES | IC50 [1] | IC50 [2] | HCT116 antiproliferative activity pIC50 [1]
17 | CCC(=O)c1cccc(CC(C)(C#N)c2ccc3cc(C)c(=O)[nH]c3c2)c1 (stereo not shown) [Compound 173] | 200 nM | 126 nM | 
18 | CCc1cc2ccc(C(C)(C#N)Cc3cc(C)cc(C#N)c3)cc2[nH]c1=O (stereo not shown) [Compound 174] | 100 nM | 39.8 nM | 
19 | CCc1cc2ccc(C(C)(C#N)Cc3cccc(S(F)(F)(F)(F)F)c3)cc2[nH]c1=O (stereo not shown) [Compound 177] | 2000 nM | 79.4 nM | 
20 | CCc1cc2ccc(C(C)(C#N)Cc3cccc(C4(N)CC4)c3)cc2[nH]c1=O (stereo not shown) [Compound 180] | 2000 nM | 25.1 nM | 
21 | CCc1cc2ccc(C(C)(C#N)CCCN(C)C(=O)c3ccc(F)cc3)cc2[nH]c1=O (stereo not shown) [Compound 188] | 1000 nM | 79.4 nM | 
22 | CCc1cc2ccc([C@](C)(C#N)CN(C)Cc3ccc(C#N)cc3)cc2[nH]c1=O [Compound 190] | 10000 nM | 63.1 nM | 
23 | Cc1cc2ccc(C(C)(C#N)Cc3cccc(Oc4ncccn4)c3)cc2[nH]c1=O (stereo not shown) [Compound 191] | 251 nM | 126 nM | 
24 | Cc1cc2ccc(C(C)(C#N)Cc3cccc(Oc4ccccc4)n3)cc2[nH]c1=O (stereo not shown) [Compound 193] | 398 nM | 100 nM | 
25 | CCc1cc2cc(C)c(C(C)(C#N)Cc3cccc(C#N)n3)cc2[nH]c1=O (stereo not shown) [Compound 208] | 6310 nM | 100 nM | 
26 | CCc1cc2ccc(C(C)(C#N)Cc3ccc(Cl)nc3Cl)cc2[nH]c1=O (stereo not shown) [Compound 212] | 3160 nM | 20 nM | 
27 | COc1cc2ccc(C(C)(C#N)Cc3cccc(C#N)n3)cc2[nH]c1=O (stereo not shown) [Compound 218] | 1260 nM | 631 nM | 
28 | CCc1cnc(OCCC(C)(C#N)c2ccc3cc(CC)c(=O)[nH]c3c2)nc1 (stereo not shown) [Compound 222] | 3160 nM | 50.1 nM | 
29 | CCc1cc2ccc(C(C)(C#N)CCOc3nccc(OC)n3)cc2[nH]c1=O (stereo not shown) [Compound 223] | 3980 nM | 50.1 nM | 
30 | CCc1cc2ccc(C(C)(C#N)Cc3ccc(OC)nc3Cl)cc2[nH]c1=O (stereo not shown) [Compound 224] | 2000 nM | 12.6 nM | 
31 | CCc1cc2ccc(C(C)(C#N)Cc3ccc(Cl)nc3OC)cc2[nH]c1=O (stereo not shown) [Compound 225] | 501 nM | 39.8 nM | 

— US8778966B2, “Quinolinone derivatives as PARP and tank inhibitors” (Janssen Pharmaceutica, NV, priority 2007, dated 2014)
